Measurements as given in US9981042B2, “Carbon nanotube-based anti-cancer agent capable of suppressing drug resistance” (INDUSTRY-ACADEMIC COOPERATION FOUNDATION GYEONGSANG …, priority 2012, dated 2018).

Legend:
MDA-MB-231 tumor = assay: Tumor size and weight in MDA-MB-231 tumor model mice after tail vein injection; format: in vivo, BALB/c nude mice
Description: To prepare the animal tumor model, MDA-MB-231 cells were inoculated subcutaneously in the flank of female BALB/c nu/nu (athymic nude) mice (5×10^6 cells per mouse) When the tumor reached a mean volume of 100 mm^3 in the mice were used for the following Experimental Examples.
First, the tumor model mice prepared by transplanting MDA-MB-231 tumor cells to BALB/c nude mice were randomly divided into seven groups (n=10 per group) and injected with 200 μL of 0.5 mg/kg DOX, mwCNT, DOX-mwCNT in PBS, or pure PBS (negative control) in the tail vein. Subjects were weighed at 2, 9, and 16 days. Body weight and tumor sizes were measured twice a week for 21 days, and tumor volumes were calculated by the formula: V(volume)=X(length)×D(width)^2/2.
Twenty one day after the tail vein injection, the changes in tumor size of sacrificed animals were determined.
Furthermore, after the administration of the anticancer agent, tumor tissues taken from the sacrificed animals were weighed. In this case, in order to compare the significance of each group, Prism (GraphPad Software, Inc.) was used for statistical analysis with one-way ANOVA (analysis of variance) (** P<0.01, *** P<0.001).

MDA-MB-231 cells = assay: Efflux from cells (fluorescence microscopy); format: cell-based; conditions: 100 ng/ml for 2 h, then drug-free medium
Description: In addition, for efflux analysis, MDA-MB-231 cells (1×10^4 cells/well) cultivated in 24 well plate were treated with 100 ng/ml of DOX-mwCNT according to an embodiment of the present invention and doxorubicin, respectively. Two hours after the treatment, culture media was removed and the cells were washed three times with PBS and incubated with regular culture medium containing no anticancer agents for 24 h. Then the degree of efflux of doxorubicin from the cells was observed using a fluorescent microscope (FIG. 27). […] In the experiment, zero time (0 h) means a time when 2 hours has elapsed after removing doxorubicin and washing cells with PBS.

MRP-1 protein = MRP-1 protein western blot; format: cell-based; conditions: 100 ng/ml for 2 h; 24 hours after the treatment
Description: (§1) MDA-MB-231 breast cancer cells (4×10^5 cells/well) known to overexpress MRP1 were plated in a 6 well plate and 100 ng/ml of doxorubicin and DOX-mwCNT were treated to the cells for 2 h, respectively. Carbon nanotube as a control was treated with a concentration of 348 ng/ml for 2 h.
To confirm the above result in protein level, the present inventors performed western bot analysis of the MRP-1 protein, there was a significant difference in protein expression of MRP-1 between doxorubicin- and DOX-mwCNT-25-treating groups (FIG. 30). […] Despite of previous studies reporting that Mdr-1 and Mrp-1 genes mediate drug resistance of MDA-MB-231, Mdr-1 was hardly detected in this experiment due to short drug exposure time (2 hours).

MDA-MB-231 tumor tissue = assay: Histopathological observation (Haematoxylin-Eosin) of tumor tissues; format: in vivo, BALB/c nude mice; conditions: H&E; doxorubicin 0.5 and 5 mg/kg, DOX-mwCNT-25 0.5 mg/kg; versus control
Description: Then, the present inventors anesthetized the mice with ethyl ether, sacrificed them and collected tumor tissues therefrom. After measuring the weight of the collected tumor tissues, the tumor tissues were fixed for 24 hours in 10% formalin, washed with water and dehydrated and dipped in 70, 80, 90, 95 and 100% of ethanol, serially. The tissues were transparentized with xylene and embedded in paraffin. And then the embedded tissues were sliced at a thickness of 5 um, placed on glass slides.

[1] = Particle size by transmission electron microscope; conditions: in PBS
[2] = test system: late endosomes in MDA-MB-231 cells; assay: High resolution imaging of doxorubicin and late endosome marker; format: cell-based; conditions: 24 h
Description: Furthermore, the present inventors performed a high resolution image analysis for 24 h in order to investigate the degradation of uptaken doxorubicin signal by co-staining doxorubicin and late endosome specific marker. […] Therefore, it was understood that late endosomes act as transporters of doxorubicin excreted from nucleus.

Mrp-1 = Mrp-1 mRNA expression by RT-PCR; format: cell-based; conditions: 100 ng/ml for 2 h; after 6 hours and later
Description: as §1
Two hours after treatment, culture mediums were replaced with DMEM medium supplemented with 10% FBS and not containing mwCNT, DOX, and DOX-mwCNT, and the cells were further incubated. Then RNA was isolated from cells after 2, 6, 12, 24, and 36 hours of incubation, respectively and then Mrp-1 mRNA level was analyzed. In this case, TRIZOL reagent (Invitrogen, USA) and chloroform were used for RNA isolation, then the isolated RNA was reacted with same volume of isopropanol for 2 h, quantified and subjected to RT-PCR (reverse transcriptase PCR).

A549 cells = assay: MTT assay on lung cancer cells; format: cell-based; conditions: A549, 48 h, 0.086-1.38 μmol/L
Description: A549 cells (1×10^4 cells/well, CAT: CRL-1658, ATCC) were seeded in a 96-well plate and incubated with DMEM medium supplementing 10% FBS (fetal bovine serum). At this time, the culture was maintained under the condition of 5% of CO2 at 37° C. The cells were cultured for 24 h and mwCNT-COOH, EPI, EPI-EGF, EPI-mwCNT and EPI-EGF-mwCNT were treated to each well with ratios of 0.086, 0.172, 0.345, 0.69, 1.38 μmol/L, respectively and then further cultured for 48 h. And then, drug solutions were removed from the plate, 100 μl of MTT reagent (1 mg/ml, 3-(4,5-dimethylthiazol-2-yl)-2,5-diphenyltetrazolium bromide) was slowly added to each well, and incubated for 1 h at 37° C. Thereafter, 100 μl of DMSO solution per well was added, followed by measuring absorbance at 560 nm using a microplate reader (Model 680, Bio-Rad).
Then, the present inventors treated drugs containing doxorubicin (DOX-EGF, DOX-mwCNT-25, DOX-EGF-mwCNT) to the same lung cancer cell A549. All the condition except drugs were same.

Compound	volume and mass of tumors (MDA-MB-231 tumor; 0.5 mg/kg, three times I.V. injection, 21 days)	size of tumor tissue compared to control group (MDA-MB-231 tumor; large dose 5 mg/kg)	time to complete excretion from cells (MDA-MB-231 cells)	protein expression of MRP-1 (MRP-1 protein)	necrosis / damage of tumor tissue (MDA-MB-231 tumor tissue)	particle size (length variation) [1]	late endosome signal [2]	expression of Mrp-1 gene (Mrp-1)	viability compared to group treated with only mwCNT-COOH (A549 cells)
COc1cccc2c1C(=O)c1c(O)c3c(c(O)c1C2=O)C[C@@](O)(C(=O)CO)C[C@@H]3O[C@H]1C[C@H](N)[C@H](O)[C@H](C)O1 [DOX, doxorubicin]	no notable tumor inhibition	decreased significantly	6˜12 hours	weak band	increased necrosis	0-40 nm	few late endosomes were observed	decreased	
EPI-EGF (NSDSECPLSHDGYCLHDGVCMYIEALDKYACNCVVGYIGERCQYRDLKWWELR; Epidermal growth factor epirubicin conjugate; UniProt P01133 971-1023, looked up)									lower viability
COc1cccc2c1C(=O)c1c(O)c3c(c(O)c1C2=O)C[C@@](O)(C(=O)CO)C[C@@H]3O[C@H]1C[C@H](N)[C@@H](O)[C@H](C)O1 [EPI, epirubicin]									lower viability
